# Measured values: paper PMC7777204, “Locking mixed-lineage kinase domain-like protein in its auto-inhibited state prevents necroptosis” (Proceedings of the National Academy of Sciences of the …, 2020)
# Key:
# MLKL executioner domain = target: T1, MLKL executioner domain (Homo sapiens, UniProt Q8NB16); experiment: NMR diffusion experiments (hydrodynamic radius); type: biochemical
# T1 construct: 80 µM MLKL N-terminal executioner domain (residues 1 to 154) was used; GST (thrombin cleavage site) (cleaved yes)
# T1 sequence (Q8NB16 1-154): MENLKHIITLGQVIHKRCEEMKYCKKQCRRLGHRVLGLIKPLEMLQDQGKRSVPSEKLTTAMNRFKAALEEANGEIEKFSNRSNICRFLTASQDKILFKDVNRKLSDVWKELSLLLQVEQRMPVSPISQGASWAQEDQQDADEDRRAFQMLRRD
# Protocol: To further characterize the oligomerized MLKL executioner domain, NMR diffusion experiments were conducted directly succeeding the end of the real-time NMR series (orange dots in Fig. 5A). This was compared with a fresh sample of unliganded MLKL executioner domain (black dots in Fig. 5A).
# In a next step, we conducted NMR diffusion experiments with NM concentrations above and below the critical micelle concentration of 6 mM, to find out if the increased hydrodynamic radius of the MLKL executioner domain is dependent on the presence of micelles. […] The presence of 500 µM IP6 and 500 µM Cpd 3 had no influence on the hydrodynamic radius of NM (SI Appendix, Fig. S12). […] Therefore, the oligomerization depends on micelles, and the observed species is most likely a micelle-integrated oligomeric MLKL executioner domain. […]
# NMR diffusion experiments were recorded as pseudo two-dimensional experiments with varying gradient strength either as a ^15N-filtered NMR experiment ([42]) (recorded with ^15N-labeled protein). […]
# where d is the diffusion constant. […] The hydrodynamic radius was calculated by using the determined diffusion constants of the component of interest (d) and dioxane (ddioxane) and the known hydrodynamic radius of dioxan (2.12 Å) ([23]) using Eq. 4. rH=2.12Å⋅ddioxane/d, [4] […]
# [1] = target: T2, human MLKL executioner domain (WT) (Homo sapiens, UniProt Q8NB16); experiment: Functional NMR assay (detachment of α-helix 6), WT; type: biochemical; conditions: WT
# T2 construct: 80 µM MLKL N-terminal executioner domain (residues 1 to 154) was used; GST (thrombin cleavage site) (cleaved yes)
# T2 sequence (Q8NB16 1-154): T1 sequence (Q8NB16 1-154)
# Source text: To test the significance of the additional interaction between α-helix 6 and the four-helix bundle provided by the xanthine compounds stacking to the phenyl ring of Phe148, we used a described functional NMR assay ([12]). Binding of phytic acid (IP6) and the detergent β-D-nonylmaltoside (NM) led to the detachment of α-helix 6, which can be monitored in ^1H,^15N-correlation spectra by the altered chemical shift of the Hε1–Nε1 correlation of Trp133 and the backbone N–H correlation of Ala141 ([12]). […] Adding 12 mM NM or 500 µM IP6 led to the appearance of a second very weak peak reporting on the detached α-helix 6 with a population of the activated state (pact) of 1% and 4%, respectively (Fig. 3). […] Combining 12 mM NM and 500 µM IP6 induced a dramatic increase of the population of the detached state (pact 86%). […] To further validate the importance of the π–π stacking interaction between the xanthine and Phe148 in α-helix 6, we carried out the functional NMR assay with the F148A-mutated variant of MLKL. The removal of the phenyl group induced significant CSPs localized in close proximity to the mutation site, due to the removal of ring currents and, therefore, strong electronic changes. […] MLKL F148A was more sensitive to the addition of 12 mM NM, 500 µM IP6, or the combination thereof. In the spectra in the presence of NM and the combination of NM and IP6, a third Trp133 peak appeared, most likely reporting on a state similar to the active state. […] Thus, the stacking interaction of the xanthine core to Phe148 is vital for the inhibitory activity of these MLKL inhibitors.
# Fig. 3. (A and B) The region of the NMR ^1H,^15N-correlation spectra of the MLKL executioner domain (protein concentration: 80 µM) containing the cross-peaks of Trp133 Nε1–Hε1 in the auto-inhibited state where α-helix 6 is attached to the four-helix bundle (inact. state) and in the active, detached state (act. state) are shown. The unliganded state is depicted in black, with 12 mM NM in cyan; 500 µM IP6 in orange; 500 µM Cpd 3 in blue; 12 mM NM and 500 µM IP6 in red; and 12 mM NM, 500 µM IP6, and 500 µM Cpd 3 in green. The spectra depicted in A are measured with the WT protein and in B with the F148A variant. […] Dark gray bars correspond to the WT, while light gray bars correspond to the F148A variant. The asterisk means that no active conformation could be detected. Double asterisks indicate data not determined.
# For the functional NMR assay ^1H,^15N-correlation spectra were recorded on a Bruker Avance III HD 600-MHz NMR spectrometer equipped with a cryogenic QCI probe in 2.5-mm NMR tubes at 298 K. Spectra were recorded with 64 complex points in the indirect dimension, 96 scans, and an interscan delay of 2 s. For the samples, 80 µM MLKL N-terminal executioner domain (residues 1 to 154) was used in a 20 mM sodium phosphate buffer at pH 7.5 containing 150 mM sodium chloride and 1 mM TCEP. For the different conditions, either 500 µM IP6, 12 mM NM, or a combination of the two were used. The xanthine compounds were tested at 500 µM, while NSA, due to limited solubility, was tested only at 200 µM, which is sufficient to saturate MLKL. Spectra were analyzed, and peaks were integrated in CcpNnmr analysis ([39]).
compound,measurement,setting,value
Cn1c(=O)c2c(nc(S(C)(=O)=O)n2C)n(CC#Cc2cccc(O)c2)c1=O [Cpd 3],Oligomeric state of the MLKL executioner domain,"MLKL executioner domain; 12 mM NM + 500 µM IP6 + 500 µM Cpd 3, after 2 d of incubation, 57 Å without compound",completely monomeric
same,Hydrodynamic radius of the MLKL executioner domain,"MLKL executioner domain; complex with 500 µM Cpd 3, 12 mM NM + 50 µM IP6, after time course, 60 Å without Cpd 3, 19 Å unliganded",30 Å
same,"Population of the activated state (pact), α-helix 6 detached","[1]; 80 µM protein, 12 mM NM + 500 µM IP6 + 500 µM compound, without compound pact 86%",19%
same,Induction of the active state by compound alone,"[1]; compound alone (Cpd 3 500 µM, NSA 200 µM), no NM/IP6",did not induce the active state
